According to DBAASP:
In brackets after ≈: the same amount, converted by molar mass.

Columns and labels:
Test in all cases: ≥ marks a high value that may be exact or a test limit, other limits are often not marked, values filed in µg/mL are converted to µM
[1] = system: Escherichia coli ATCC 25922
[2] = system: Staphylococcus aureus NCTC 8325
[3] = system: Bacillus subtilis ATCC 6633
[4] = system: Klebsiella pneumoniae ATCC 700603
[5] = system: Pseudomonas aeruginosa ATCC 27853
[6] = system: Staphylococcus aureus ATCC 25923
[7] = system: Staphylococcus epidermidis ATCC 12228
[8] = system: Candida albicans ATCC 90028
[9] = system: Bacillus subtilis
[10] = system: Escherichia coli DH5alpha

SMILES | MIC [1] | MIC [2] | MIC [8] | further results
CC[C@H](C)[C@H](NC(=O)[C@H](CCCCN)NC(=O)[C@H](CS)NC(=O)[C@H](Cc1ccccc1)NC(=O)[C@@H](NC(=O)CNC(=O)[C@@H](NC(=O)[C@@H]1CCCN1C(=O)[C@H](Cc1ccccc1)NC(=O)[C@@H](N)Cc1ccccc1)[C@@H](C)CC)C(C)C)C(=O)N[C@@H](Cc1ccccc1)C(=O)N[C@@H](CCCCN)C(=O)N[C@H](C(=O)N[C@@H](CS)C(=O)O)[C@@H](C)O [FFPIGVFCKIFKTC] | 30 µM (≈ 49.5 µg/mL) | ≥ 100 µM | – | –
CC[C@H](C)[C@H](NC(=O)[C@H](CC(C)C)NC(=O)[C@H](CO)NC(=O)[C@H](C)NC(=O)[C@H](Cc1ccccc1)NC(=O)[C@H](CC(C)C)NC(=O)[C@@H]1CCCN1C(=O)[C@H](CC(C)C)NC(=O)[C@@H](N)Cc1ccccc1)C(=O)NCC(=O)N[C@@H](CCCCN)C(=O)N[C@@H](CC(C)C)C(=O)N[C@@H](CC(C)C)C(N)=O [FLPLFASLIGKLL] | – | ≥ 140 µM | – | –
CC[C@H](C)[C@H](NC(=O)[C@H](CC(C)C)NC(=O)[C@H](CC(=O)O)NC(=O)[C@H](CO)NC(=O)[C@@H](NC(=O)[C@H](C)NC(=O)[C@H](CCCCN)NC(=O)[C@@H](NC(=O)[C@H](C)NC(=O)[C@H](Cc1cnc[nH]1)NC(=O)[C@@H]1CCCN1C(=O)[C@@H](NC(=O)[C@H](CC(C)C)NC(=O)[C@@H]1CCCN1C(=O)CNC(=O)[C@@H](NC(=O)[C@H](Cc1ccc(O)cc1)NC(=O)[C@H](CCCCN)NC(=O)[C@H](CCSC)NC(=O)[C@H](Cc1ccccc1)NC(=O)CN)[C@@H](C)CC)[C@@H](C)CC)C(C)C)[C@@H](C)CC)C(=O)O [GFMKYIGPLIPHAVKAISDLI] | 25 µM (≈ 57.1 µg/mL) | ≥ 100 µM | ≥ 200 µM | –
CC[C@H](C)[C@H](NC(=O)[C@H](CC(C)C)NC(=O)[C@H](CC(=O)O)NC(=O)[C@H](CO)NC(=O)[C@@H](NC(=O)[C@H](C)NC(=O)[C@H](CCCCN)NC(=O)[C@@H](NC(=O)[C@H](CCCCN)NC(=O)[C@H](Cc1cnc[nH]1)NC(=O)[C@@H]1CCCN1C(=O)[C@@H](NC(=O)[C@H](CC(C)C)NC(=O)[C@@H]1CCCN1C(=O)CNC(=O)[C@@H](NC(=O)[C@H](Cc1ccc(O)cc1)NC(=O)[C@H](CCCCN)NC(=O)[C@H](CCSC)NC(=O)[C@H](Cc1ccccc1)NC(=O)CN)[C@@H](C)CC)[C@@H](C)CC)C(C)C)[C@@H](C)CC)C(N)=O [GFMKYIGPLIPHKVKAISDLI] | 100 µM (≈ 234 µg/mL) | ≥ 200 µM | ≥ 200 µM | –
CC[C@H](C)[C@H](NC(=O)CNC(=O)[C@H](CCC(N)=O)NC(=O)[C@H](Cc1ccccc1)NC(=O)[C@@H](NC(=O)[C@H](CCCCN)NC(=O)[C@H](CCCCN)NC(=O)[C@H](CC(C)C)NC(=O)[C@H](C)NC(=O)[C@H](CC(N)=O)NC(=O)[C@H](CC(C)C)NC(=O)CN)C(C)C)C(=O)N[C@@H](Cc1cnc[nH]1)C(=O)N[C@@H](CCC(=O)O)C(=O)N[C@@H](C)C(=O)N[C@@H](Cc1ccccc1)C(=O)N[C@@H](CCCCN)C(=O)N[C@@H](CC(C)C)C(=O)N[C@H](C(=O)N[C@@H](CC(N)=O)C(=O)N[C@@H](CC(N)=O)C(=O)N[C@@H](Cc1cnc[nH]1)C(=O)N[C@H](C(=O)N[C@@H](CCC(N)=O)C(=O)O)C(C)C)[C@@H](C)CC [GLNALKKVFQGIHEAFKLINNHVQ] | 20 µM (≈ 54.4 µg/mL) | ≥ 160 µM | – | –
CC[C@H](C)[C@H](NC(=O)CNC(=O)[C@H](CCC(N)=O)NC(=O)[C@H](Cc1ccccc1)NC(=O)[C@@H](NC(=O)[C@H](CCCCN)NC(=O)[C@H](CCCCN)NC(=O)[C@H](CC(C)C)NC(=O)[C@H](C)NC(=O)[C@H](CC(N)=O)NC(=O)[C@H](CC(C)C)NC(=O)CN)C(C)C)C(=O)N[C@@H](Cc1cnc[nH]1)C(=O)N[C@@H](CCC(=O)O)C(=O)N[C@@H](C)C(=O)N[C@H](C(=O)N[C@@H](CCCCN)C(=O)N[C@@H](CC(C)C)C(=O)N[C@@H](Cc1ccccc1)C(=O)N[C@@H](CC(N)=O)C(=O)N[C@@H](CC(N)=O)C(=O)N[C@@H](Cc1cnc[nH]1)C(=O)N[C@H](C(=O)N[C@@H](CCC(N)=O)C(=O)O)C(C)C)[C@@H](C)CC [GLNALKKVFQGIHEAIKLFNNHVQ] | 10 µM (≈ 27.2 µg/mL) | ≥ 160 µM | – | –
CC[C@H](C)[C@H](NC(=O)[C@H](Cc1ccccc1)NC(=O)[C@@H](NC(=O)[C@H](CC(C)C)NC(=O)[C@H](CCCN=C(N)N)NC(=O)[C@H](CCCCN)NC(=O)[C@H](CCCN=C(N)N)NC(=O)[C@H](CCCCN)NC(=O)[C@H](CC(C)C)NC(=O)[C@H](CC(C)C)NC(=O)[C@@H](NC(=O)[C@@H](N)Cc1ccc(O)cc1)C(C)C)[C@@H](C)CC)C(=O)O [YVLLKRKRLIFI] | – | – | – | MIC [9]: ≥ 200 µM; MIC [10]: ≥ 50 µM; MIC [5]: > 200 µM; MIC [6]: > 200 µM

More lines, main results first:

MIC [1] | MIC [2] | MIC [8] | SMILES | further results
1.6 µM (≈ 3.26 µg/mL) | – | – | CC(=O)N[C@@H](Cc1ccccc1)C(=O)N[C@@H](CCCCN)C(=O)N[C@@H](CCCCN)C(=O)N[C@@H](CC(C)C)C(=O)N[C@@H](CCCCN)C(=O)N[C@@H](CCCCN)C(=O)N[C@@H](CC(C)C)C(=O)N[C@@H](Cc1ccccc1)C(=O)N[C@@H](CO)C(=O)N[C@@H](CCCCN)C(=O)N[C@@H](CC(C)C)C(=O)N[C@@H](CCCCN)C(=O)N[C@@H](CC(N)=O)C(=O)N[C@@H](Cc1c[nH]c2ccccc12)C(=O)N[C@@H](Cc1c[nH]c2ccccc12)C(N)=O [FKKLKKLFSKLKNWW] | MIC [3]: 1.6 µM (≈ 3.26 µg/mL); MIC [4]: 3.2 µM (≈ 6.51 µg/mL); MIC [5]: 3.2 µM (≈ 6.51 µg/mL); MIC [6]: 3.2 µM (≈ 6.51 µg/mL); MIC [7]: 1.6 µM (≈ 3.26 µg/mL)
14 µM (≈ 35.9 µg/mL) | 7 µM (≈ 17.9 µg/mL) | 5 µM (≈ 12.8 µg/mL) | CC[C@H](C)[C@@H]1NC(=O)[C@H](C)NC(=O)[C@@H](NC(=O)[C@H](Cc2ccccc2)NC(=O)[C@@H](NC(=O)[C@H](CCCCN)NC(=O)[C@@H]2CCCN2C(=O)[C@H](Cc2ccccc2)NC(=O)[C@@H](NC(=O)[C@H](CCCCN)NC(=O)[C@H](C)NC(=O)[C@H](C)NC(=O)[C@@H](NC(=O)CNC(=O)[C@H](C)NC(=O)[C@@H](NC(=O)[C@@H](NC(=O)[C@@H]2CCCN2C(=O)[C@H](CC(C)C)NC(=O)[C@@H](N)Cc2ccccc2)[C@@H](C)CC)[C@@H](C)CC)C(C)C)C(C)C)[C@@H](C)CC)CSSC[C@@H](C(=O)O)NC(=O)[C@H](CCCCN)NC(=O)[C@H](CCCCN)NC(=O)[C@H](CO)NC1=O [FLPIIAGVAAKVFPKIFCAISKKC] | –
12.5 µM (≈ 29.6 µg/mL) | 25 µM (≈ 59.2 µg/mL) | ≥ 50 µM | CC[C@H](C)[C@H](NC(=O)[C@H](CC(C)C)NC(=O)[C@H](CCCCN)NC(=O)[C@H](CO)NC(=O)[C@@H](NC(=O)[C@H](C)NC(=O)[C@H](CCCCN)NC(=O)[C@@H](NC(=O)[C@H](C)NC(=O)[C@H](Cc1cnc[nH]1)NC(=O)[C@@H]1CCCN1C(=O)[C@@H](NC(=O)[C@H](CC(C)C)NC(=O)[C@@H]1CCCN1C(=O)[C@H](CCCCN)NC(=O)[C@@H](NC(=O)[C@H](Cc1ccc(O)cc1)NC(=O)[C@H](CCCCN)NC(=O)[C@H](CCSC)NC(=O)[C@H](Cc1ccccc1)NC(=O)CN)[C@@H](C)CC)[C@@H](C)CC)C(C)C)[C@@H](C)CC)C(=O)O [GFMKYIKPLIPHAVKAISKLI] | –
3 µM (≈ 10.5 µg/mL) | ≥ 50 µM | – | CSCC[C@H](NC(=O)[C@H](CC(C)C)NC(=O)[C@H](CO)NC(=O)CNC(=O)[C@H](C)NC(=O)[C@@H](NC(=O)[C@H](CC(N)=O)NC(=O)[C@H](CCCCN)NC(=O)[C@H](CC(C)C)NC(=O)[C@@H](NC(=O)[C@H](CC(N)=O)NC(=O)[C@H](CCCCN)NC(=O)CNC(=O)[C@@H](NC(=O)[C@H](CCCCN)NC(=O)[C@H](CCCCN)NC(=O)[C@H](Cc1ccccc1)NC(=O)[C@H](C)NC(=O)[C@H](CO)NC(=O)[C@H](Cc1ccccc1)NC(=O)[C@H](CC(C)C)NC(=O)CN)C(C)C)C(C)C)C(C)C)C(=O)N[C@@H](CC(=O)O)C(=O)N[C@@H](CC(N)=O)C(=O)N[C@@H](CC(C)C)C(=O)N[C@@H](CCCCN)C(=O)N[C@H]1CSSC[C@@H](C(=O)O)NC(=O)[C@H](CCC(=O)O)NC(=O)CNC(=O)[C@H](CO)NC(=O)[C@H](C(C)C)NC(=O)[C@H](CCCCN)NC1=O [GLFSAFKKVGKNVLKNVAGSLMDNLKCKVSGEC] | –
10 µM (≈ 27 µg/mL) | ≥ 80 µM | – | CC[C@H](C)[C@H](NC(=O)CNC(=O)[C@H](CCC(N)=O)NC(=O)[C@H](Cc1ccccc1)NC(=O)[C@@H](NC(=O)[C@H](CCCCN)NC(=O)[C@H](CCCCN)NC(=O)[C@H](CC(C)C)NC(=O)[C@H](C)NC(=O)[C@H](CCCCN)NC(=O)[C@H](CC(C)C)NC(=O)CN)C(C)C)C(=O)N[C@@H](Cc1cnc[nH]1)C(=O)N[C@@H](CCC(=O)O)C(=O)N[C@@H](C)C(=O)N[C@H](C(=O)N[C@@H](CCCCN)C(=O)N[C@@H](CC(C)C)C(=O)N[C@H](C(=O)N[C@@H](CC(N)=O)C(=O)N[C@@H](CC(N)=O)C(=O)N[C@@H](Cc1cnc[nH]1)C(=O)N[C@H](C(=O)N[C@@H](CCC(N)=O)C(=O)O)C(C)C)[C@@H](C)CC)[C@@H](C)CC [GLKALKKVFQGIHEAIKLINNHVQ] | –
> 150 µM | ≥ 48 µM | ≥ 150 µM | CC[C@H](C)[C@H](NC(=O)[C@H](CCCCN)NC(=O)[C@H](CCCCN)NC(=O)[C@H](C)NC(=O)[C@H](CC(C)C)NC(=O)[C@H](CC(N)=O)NC(=O)[C@@H](NC(=O)[C@H](CC(C)C)NC(=O)[C@@H](NC(=O)CNC(=O)[C@H](CC(C)C)NC(=O)[C@H](Cc1ccccc1)NC(=O)[C@@H](N)CC(N)=O)[C@@H](C)O)[C@@H](C)CC)C(=O)N[C@@H](CCSC)C(N)=O [NFLGTLINLAKKIM] | –
